Molecular target: T1, chicken gizzard smooth muscle myosin subfragment-1 chemically crosslinked to cardiac or skeletal actin (Gallus gallus, UniProt P10587)
T1 construct: chicken gizzard smooth muscle myosin subfragment-1; from tissue; host or cells: chicken gizzard
Test: Smooth muscle myosin ATPase dose response assay (pyruvate kinase/horseradish peroxidase/pyruvate oxidase-coupled, amplex red fluorescence)
Assay type: biochemical
Conditions: read-out: IC50 Arithmetic Mean
Method in brief: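 EDC/NHS-crosslinked S1–actin, amount set per prep by rate titration. Buffer: 12 mM K-PIPES pH 7.00 (22° C), 100 mM KCl, 2 mM MgCl2, 0.15 mM ATP, 0.1 mM PEP, 2 mM KPi, 0.1 mM amplex red. Read ex 480/em 615 nm; IC50 = midpoint, 4-param Hill fit.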

T1 sequence (P02607 2-151): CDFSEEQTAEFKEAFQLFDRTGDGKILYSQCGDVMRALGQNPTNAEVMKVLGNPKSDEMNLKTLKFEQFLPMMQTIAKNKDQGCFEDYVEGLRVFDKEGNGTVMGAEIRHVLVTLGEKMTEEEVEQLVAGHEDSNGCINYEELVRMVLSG
T1 sequence (P10587 84-789): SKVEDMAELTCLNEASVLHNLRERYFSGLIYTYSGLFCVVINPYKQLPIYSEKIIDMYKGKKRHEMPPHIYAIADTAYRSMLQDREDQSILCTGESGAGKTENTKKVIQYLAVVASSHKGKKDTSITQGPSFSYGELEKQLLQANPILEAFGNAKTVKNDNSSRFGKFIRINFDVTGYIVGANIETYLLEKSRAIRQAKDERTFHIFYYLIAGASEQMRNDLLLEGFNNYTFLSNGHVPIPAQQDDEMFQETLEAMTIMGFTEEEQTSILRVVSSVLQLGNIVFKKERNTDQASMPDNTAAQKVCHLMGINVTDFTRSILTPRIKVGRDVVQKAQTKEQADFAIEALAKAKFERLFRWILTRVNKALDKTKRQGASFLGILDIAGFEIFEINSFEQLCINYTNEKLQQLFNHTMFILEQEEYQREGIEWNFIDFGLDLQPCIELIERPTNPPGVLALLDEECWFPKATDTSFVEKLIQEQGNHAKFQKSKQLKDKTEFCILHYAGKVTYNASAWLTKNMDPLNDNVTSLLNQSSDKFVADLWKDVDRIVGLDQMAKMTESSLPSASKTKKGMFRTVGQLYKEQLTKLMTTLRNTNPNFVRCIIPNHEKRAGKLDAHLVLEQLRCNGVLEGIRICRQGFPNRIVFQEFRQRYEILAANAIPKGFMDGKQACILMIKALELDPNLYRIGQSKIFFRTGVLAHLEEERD

Row | Structure (SMILES) | IC50 [nM]
1 | COC(=O)c1cccc(CNC(=O)c2ccc(-c3ccccc3C#N)nc2NCCc2cccc(F)c2)n1 [methyl 6-{[(6-(2-cyanophenyl)-2-{[2-(3-fluorophenyl)ethyl]amino}-3-pyridyl)carbonylamino]methyl}pyridine-2-carboxylate] | 64
2 | Cc1ccc(CNC(=O)c2ccc(-c3ccccc3C#N)nc2NCCc2cccc(F)c2)cn1 [(6-(2-cyanophenyl)-2-{[2-(3-fluorophenyl)ethyl]amino}(3-pyridyl))-N-[(6-methyl(3-pyridyl))methyl]carboxamide] | 426
3 | C[C@@H](CO)CNC(=O)c1ccc(-c2ccccc2C#N)nc1NCCc1cccc(F)c1 [N-((2R)-3-hydroxy-2-methylpropyl)(6-(2-cyanophenyl)-2-{[2-(3-fluorophenyl)ethyl]amino}(3-pyridyl))carboxamide] | 61
4 | N#Cc1ccccc1-c1ccc(C(=O)NC[C@H]2CCCN2C(=O)CCCN)c(NCCC2CCOCC2)n1 | 8770
5 | CC(C)CCNc1nc(-c2ccccc2)ccc1C(=O)NCc1cccnc1 [{2-[3-methylbutyl)amino]-6-phenyl(3-pyridyl)}-N-(3-pyridylmethyl)carboxamide] | 2480
6 | O=C(NCc1cccnc1)c1ccc(-c2cccs2)nc1NCCc1cccc(F)c1 [(2-{[2-(3-fluorophenyl)ethyl]amino}-6-(2-thienyl)(3-pyridyl))-N-(3-pyridylmethyl)carboxamide] | 137
7 | COC(=O)[C@@H](C)NC(=O)c1ccc(-c2ccccc2C#N)nc1NCCc1cccc(F)c1 [methyl (2R)-2-[(6-(2-cyanophenyl)-2-{[2-(3-fluorophenyl)ethyl]amino}(3-pyridyl))carbonylamino]propanoate] | 743
8 | NCCCn1ccc(CNC(=O)c2ccc(-c3cn[nH]c3)nc2NCCc2cccc(F)c2)n1 [N-{[1-(3-aminopropyl)pyrazol-3-yl]methyl}(2-{[2-(3-fluorophenyl)ethyl]amino}-6-pyrazol-4-yl(3-pyridyl))carboxamide] | 1410
9 | N#Cc1ccccc1-c1ccc(C(=O)NC[C@H]2CCCN2C(=O)[C@@H](N)CCCN)c(NCCc2cccc(F)c2)n1 [N-{[(2R)-1-((2S)-2,5-diaminopentanoyl)pyrrolidin-2-yl]methyl}(6-(2-cyanophenyl)-2-{[2-(3-fluorophenyl)ethyl]amino}(3-pyridyl))carboxamide] | 52
10 | N#Cc1ccccc1-c1ccc(C(=O)NC[C@H]2CCCN2C(=O)CO)c(NCCc2cccc(F)c2)n1 [N-{[(2R)-1-(2-hydroxyacetyl)pyrrolidin-2-yl]methyl}(6-(2-cyanophenyl)-2-{[2-(3-fluorophenyl)ethyl]amino}(3-pyridyl))carboxamide] | 116
11 | C[C@@H](CNC(=O)c1ccc(-c2ccccc2C#N)nc1NCCc1cccc(F)c1)N(C)C(=O)CCCN | 6830
12 | CC[C@@H](CO)CNC(=O)c1cc(F)c(-c2cn[nH]c2)nc1NCCc1cccc(F)c1 [N-((2R)-2-ethyl-3-hydroxypropyl)(5-fluoro-2-{[2-(3-fluorophenyl)ethyl]amino}-6-pyrazol-4-yl(3-pyridyl))carboxamide] | 52
13 | N#Cc1ccccc1-c1ccc(C(=O)NCCCN2C(=O)CC[C@H]2CN)c(NCCc2cccc(F)c2)n1 [N-{3-[(5S)-5-(aminomethyl)-2-oxopyrrolidinyl]propyl}(6-(2-cyanophenyl)-2-{[2-(3-fluorophenyl)ethyl]amino}(3-pyridyl))carboxamide] | 11700
14 | N#Cc1ccccc1-c1ccc(C(=O)NCc2cccc(C(=O)O)n2)c(NCCc2cccc(F)c2)n1 [6-{[(6-(2-cyanophenyl)-2-{[2-(3-fluorophenyl)ethyl]amino}-3-pyridyl)carbonylamino]methyl}pyridine-2-carboxylic acid] | 47
15 | N#Cc1ccccc1-c1ccc(C(=O)NCC2CCCC(=O)N2CCCN)c(NCCc2cccc(F)c2)n1 (stereo not drawn) [N-{[1-(3-aminopropyl)-6-oxo(2-piperidyl)]methyl}(6-(2-cyanophenyl)-2-{[2-(3-fluorophenyl)ethyl]amino}(3-pyridyl))carboxamide] | 25
16 | N#Cc1ccccc1-c1ccc(C(=O)NCCNC(=O)CN)c(NCCc2cccc(F)c2)n1 [2-amino-N-{2-[(6-(2-cyanophenyl)-2-{[2-(3-fluorophenyl)ethyl]amino}(3-pyridyl))carbonylamino]ethyl}acetamide] | 1230
17 | Cn1cc(-c2nc(NCCc3cccc(F)c3)c(C(=O)NC[C@H]3CCC(=O)N3CCCNC(=O)OC(C)(C)C)cc2C#N)cn1 [N-[3-((5R)-5-{[(5-cyano-2-{[2-(3-fluorophenyl)ethyl]amino}-6-(1-methylpyrazol-4-yl)(3-pyridyl))carbonylamino]methyl}-2-oxopyrrolidinyl)propyl](tert-butoxy)carboxamide] | 1150
18 | O=C(NCc1cccnc1)c1ccc(-c2ccccc2)nc1NCCC1OCCO1 [{2-[(2-(1,3-dioxolan-2-yl)ethyl)amino]-6-phenyl(3-pyridyl)}-N-(3-pyridylmethyl)carboxamide] | 7120
19 | C[C@H](CNC(=O)c1ccc(-c2ccccc2C#N)nc1NCCc1cccc(F)c1)NS(C)(=O)=O [N-{(2R)-2-[(methylsulfonyl)amino]propyl}(6-(2-cyanophenyl)-2-{[2-(3-fluorophenyl)ethyl]amino}(3-pyridyl))carboxamide] | 1330
20 | COC(=O)N1CCC[C@@H]1CNC(=O)c1ccc(-c2ccccc2C#N)nc1NCCc1cccc(F)c1 [methyl (2R)-2-{[(6-(2-cyanophenyl)-2-{[2-(3-fluorophenyl)ethyl]amino}(3-pyridyl))carbonylamino]methyl}pyrrolidinecarboxylate] | 101
21 | Cn1cc(-c2nc(NCCc3cccc(F)c3)c(C(=O)NC[C@H]3CCCN3C(=O)OC(C)(C)C)cc2F)cn1 [tert-butyl (2R)-2-{[(5-fluoro-2-{[2-(3-fluorophenyl)ethyl]amino}-6-(1-methylpyrazol-4-yl)(3-pyridyl))carbonylamino]methyl}pyrrolidinecarboxylate] | 1460
22 | O=C(NCc1cccc(NCCO)n1)c1ccc(-c2cn[nH]c2)nc1NCCc1cccc(F)c1 [(2-{[2-(3-fluorophenyl)ethyl]amino}-6-pyrazol-4-yl(3-pyridyl))-N-({6-[(2-hydroxyethyl)amino](2-pyridyl)}methyl)carboxamide] | 39
23 | Cn1cc(-c2nc(NCCc3cccc(F)c3)c(C(=O)NCCCN)cc2F)cn1 [N-(3-aminopropyl)(5-fluoro-2-{[2-(3-fluorophenyl)ethyl]amino}-6-(1-methylpyrazol-4-yl)(3-pyridyl))carboxamide] | 3960
24 | N#Cc1ccccc1-c1nc(NCCc2cccc(F)c2)c(C(=O)NCc2cccnc2CN)cc1F [N-{[2-(aminomethyl)(3-pyridyl)]methyl}(6-(2-cyanophenyl)-5-fluoro-2-{[2-(3-fluorophenyl)ethyl]amino}(3-pyridyl))carboxamide] | 6

Next, values leading:

Row | IC50 [nM] | Structure (SMILES)
25 | 3960 | Cc1ccc(-c2ccc(C(=O)NCc3cccnc3)c(NCCc3ccccn3)n2)c(C)c1 [{6-(2,4-dimethylphenyl)-2-[(2-(2-pyridyl)ethyl)amino](3-pyridyl)}-N-(3-pyridylmethyl)carboxamide]
26 | 39 | N#Cc1ccccc1-c1ccc(C(=O)NC[C@H]2CCC(=O)N2CCCCCN)c(NCCc2cccc(F)c2)n1 [N-{[(2R)-1-(5-aminopentyl)-5-oxopyrrolidin-2-yl]methyl}(6-(2-cyanophenyl)-2-{[2-(3-fluorophenyl)ethyl]amino}(3-pyridyl))carboxamide]
27 | 648 | C[C@H](CNC(=O)c1cc(F)c(-c2cnn(C)c2)nc1NCCc1cccc(F)c1)NCCO [N-{(2R)-2-[(2-hydroxyethyl)amino]propyl}(5-fluoro-2-{[2-(3-fluorophenyl)ethyl]amino}-6-(1-methylpyrazol-4-yl)(3-pyridyl))carboxamide]
28 | 568 | COC(=O)[C@H](N)CNC(=O)c1cc(F)c(-c2cnn(C)c2)nc1NCCc1cccc(F)c1 [methyl (2R)-2-amino-3-[(5-fluoro-2-{[2-(3-fluorophenyl)ethyl]amino}-6-(1-methylpyrazol-4-yl)(3-pyridyl))carbonylamino]propanoate]
29 | 13300 | CC(C)NC(=O)c1ccc(-c2ccccc2)nc1NCCc1ccccn1 [N-(methylethyl){6-phenyl-2-[(2-(2-pyridyl)ethyl)amino](3-pyridyl)}carboxamide]
30 | 3740 | C=CCNC(=O)c1ccc(-c2ccccc2)nc1NCCc1cccc(C)c1 [(2-{[2-(3-methylphenyl)ethyl]amino}-6-phenyl(3-pyridyl))-N-prop-2-enylcarboxamide]
31 | 1240 | N#Cc1ccc(CNC(=O)c2ccc(-c3ccccc3)nc2NCCc2cccc(F)c2)cn1 [N-[(6-cyano(3-pyridyl))methyl](2-{[2-(3-fluorophenyl)ethyl]amino}-6-phenyl(3-pyridyl))carboxamide]
32 | 10700 | CC(=O)N1CCC[C@@H](CNC(=O)c2ccc(-c3ccccc3C#N)nc2NCCc2cccc(F)c2)C1 [N-[((3S)-1-acetyl(3-piperidyl))methyl](6-(2-cyanophenyl)-2-{[2-(3-fluorophenyl)ethyl]amino}(3-pyridyl))carboxamide]
33 | 6650 | N#Cc1ccccc1-c1ccc(C(=O)NCC(CN)C(N)=O)c(NCCc2cccc(F)c2)n1 (stereo not drawn) [N-(3-amino-2-carbamoylpropyl)(6-(2-cyanophenyl)-2-{[2-(3-fluorophenyl)ethyl]amino}(3-pyridyl))carboxamide]
34 | 344 | Cc1csc(-c2ccc(C(=O)NCc3cccnc3)c(NCCc3ccccn3)n2)c1 [{6-(4-methyl(2-thienyl))-2-[(2-(2-pyridyl)ethyl)amino](3-pyridyl)}-N-(3-pyridylmethyl)carboxamide]
35 | 103 | N#Cc1ccccc1-c1nc(NCCc2cccc(F)c2)c(C(=O)NC[C@H]2CCCN2)cc1F [N-[((2R)pyrrolidin-2-yl)methyl](6-(2-cyanophenyl)-5-fluoro-2-{[2-(3-fluorophenyl)ethyl]amino}(3-pyridyl))carboxamide]
36 | 6720 | CN1CCN(C(=O)CCCN)C[C@@H]1CNC(=O)c1ccc(-c2ccccc2C#N)nc1NCCc1cccc(F)c1 [N-{[(2S)-4-(4-aminobutanoyl)-1-methylpiperazin-2-yl]methyl}(6-(2-cyanophenyl)-2-{[2-(3-fluorophenyl)ethyl]amino}(3-pyridyl))carboxamide]

— patent US7932270B2 (Cytokinetics, Inc., priority 2006, dated 2011)
